Two molecules from patent publication US20250161279A1, “METHODS OF TREATING MULTIPLE MYELOMA USING BCL-2 INHIBITOR” (BeiGene Switzerland GmbH, priority 2022, published 2025) can be followed below.

Data set [1] in a line: Clinical study, PK of Compound 1 in combination with dexamethasone. It counts as in vivo, human. The note with it: MM patients, 80 to 640 mg target doses. As to the method: A dose escalation study is conducted to evaluate the safety and tolerability of Compound 1 in combination with dexamethasone and dexamethasone plus carfilzomib in patients with relapsed/refractory (R/R) multiple myeloma (MM) and t (11;14). Also, the corresponding maximum tolerated dose (MTD)/maximum assessed dose (MAD), recommended Phase 2 dose (RP2D) and pharmacokinetics for Compound 1 in the combination therapies are to be observed.
Compound 1 plus dexamethasone: Patients with R/R MM and t (11;14) receive increasing doses of Compound 1 once daily with starting dose at 80 mg once daily, plus 40 mg of dexamethasone once weekly to determine the safety, tolerability, efficacy, and pharmacokinetics (PK). Upon completion of the dose-limiting toxicity (DLT) window (21 days) and depending on the number of evaluable patients and observed DLTs, the dose of Compound 1 may be de-escalated to 40 mg once daily, stay at 80 mg once daily, or be escalated to 160 mg once daily. Upon dose escalation to 160 mg once daily and provided there are no DLTs observed during the DLT window, the study may be conducted to escalate to a few higher dose levels (up to 640 mg once daily), or to insert some certain intermediate doses between 80 mg and 160 mg once daily.

Data set [2] relates to KMS-12-PE human MM subcutaneous xenograft model. As to the kind of experiment: KMS-12-PE xenograft model study: tumor growth. It counts as in vivo, NCG mice. The note with it: for Tumor Volume (mm^3) (Mean ± SEM) Day 17: 17 days. As to the method:
KMS-12-PE, a human MM cell line, was obtained from Deutsche Sammlung von Mikroorganismen und Zellkulturen (DSMZ, Catalog: ACC 606). KMS-12-PE cells were cultured in RPMI 1640 complete medium, supplemented with 20% (v/v) fetal bovine serum, and 100 μg/mL of penicillin and streptomycin. In this study, cells were used within 10 passages of recovery from liquid nitrogen. KMS-12-PE cells were maintained as suspension cultures at 37° C. in a 5% CO2 atmosphere, being passaged twice weekly. […] Resuspended cells were placed on ice prior to inoculation. The right front flank of each mouse was cleaned with 75% ethanol prior to cell inoculation. Each animal was injected subcutaneously with 3×10^7 cells in 200 μL of cells suspension in the right front flank via a 1 mL LS 25GA syringe. […] Body weight was assessed immediately before dosing and volume dosed was adjusted accordingly. Tumor volume was measured twice weekly in two dimensions using a caliper (measurable since day 4 post treatment in this study). Body weights were recorded twice weekly. One individual was responsible for tumor measurement for the duration of the study. Mice were also monitored daily for clinical signs of toxicity. Mice were euthanized using carbon dioxide at the end of the study. The two-dimension diameters of tumor were determined using a caliper. Tumor volume was calculated using the formula: […] Tumor growth inhibition (TGI) was calculated using the following formula: […] Where, treated t=treated tumor volume at time t, treated t0=treated tumor volume at time 0, vehicle t=vehicle tumor volume at time t, vehicle t0=vehicle tumor volume at time 0. The tumor volume on day 17 post treatment was analyzed using ANOVA method on logarithmic scale in SAS Enterprise Guide version: 7.15 HF3. The following comparisons were made among treatment groups, […] The combination therapy was compared to corresponding single agents. […] The EOHSA tests were adjusted by Holm's multiple comparison test. #p<0.05, ####p<0.0001.

Data set [3] concerns patients with R/R MM harboring t (11;14). It counts as in vivo, human. The note with it: 19 patients, 80, 160, 320 and 640 mg QD with dexamethasone, preliminary.
The nature of data set [4]: PK analysis of Compound 1 in KMS-12-PE xenograft mice (plasma, day 14). It counts as in vivo, NCG mice. The note with it: for AUC0-24 h of Compound 1, Day 14 / Cmax of Compound 1, Day 14: plasma; for Individual animal's plasma concentration of Compound 1, 0 h post treatment / Individual animal's plasma concentration of Compound 1, 0.5 h post treatment / Individual animal's plasma concentration of Compound 1, 2 h post treatment / Individual animal's plasma concentration of Compound 1, 8 h post treatment / Individual animal's plasma concentration of Compound 1, 24 h post treatment: day 14, steady state. On the procedure: On day 14 post treatment, blood samples (about 100 μL per mouse) were collected from the retro-orbital sinus under isoflurane/oxygen anesthesia at predose 0, 0.5, 2, 8, and 24 hours after dosing of Compound 1 (3 mice per time point, every mouse was used for 2 or 3 time points). The blood was transferred to the EDTA-K2 anticoagulation tube, and the plasma was collected by centrifugation at 5,600 rpm for 7 min and was kept frozen in −80° C. until analysis.
For PK analysis, maximum plasma concentration (Cmax) and time to peak (Tmax) were got directly from the plasma concentration versus time graphs. The area under the plasma concentration-time curve (AUC) from time 0 to 24 hours post-dose (AUC0-24h) was calculated.

The mark [5] stands for this setting: Compound 1 1.5 mg/kg + Dexamethasone 0.1 mg/kg p.o. QD.
[6] abbreviates: Compound 1 1.5 mg/kg + Dexamethasone 0.1 mg/kg.
Where [7] appears, read: Compound 1 1.5 mg/kg + Dexamethasone 1 mg/kg p.o. QD.
The mark [8] stands for this setting: Compound 1 1.5 mg/kg + Dexamethasone 1 mg/kg.
Where [9] appears, read: Compound 1 1.5 mg/kg p.o. QD, single agent.
Where [10] appears, read: Compound 1 1.5 mg/kg p.o. QD, 1.5 mg/kg.
Setting [11] is: Dexamethasone 0.1 mg/kg p.o. QD.

Where “and” joins values, the source holds several entries; their conditions need not be identical. Equal values may be shown once.

Take `CC(C)c1ccccc1[C@@H]1CCCN1C1CC2(CCN(c3ccc(C(=O)NS(=O)(=O)c4ccc(NCC5CCC(C)(O)CC5)c([N+](=O)[O-])c4)c(Oc4cnc5[nH]ccc5c4)c3)CC2)C1` (stereo partly drawn) [Compound 1, 2-((1H-pyrrolo[2,3-b]pyridin-5-yl)oxy)-N-((4-((((1r,4r)-4-hydroxy-4-methylcyclohexyl)methyl)amino)-3-nitrophenyl)sulfonyl)-4-(2-((S)-2-(2-isopropylphenyl)pyrrolidin-1-yl)-7-azaspiro[3.5]nonan-7-yl)benzamide]: in data set [1], the “drug-drug-interaction (DDI) potential between dexamethasone and Compound 1” value is given as “low”. Besides, in data set [2] (Compound 1 1.5 mg/kg p.o. QD), the “TGI (%) Day 17” value amounted to 11% and the “Tumor Volume (mm^3) (Mean ± SEM) Day 17” value worked out at 1011.7 ± 103.8 mm^3. Moreover, the “clinical activity / disease control” value in data set [3] was “demonstrated activity at tested dose levels, and most patients achieved disease control”. Besides, in data set [4] (setting [5]), the “AUC0-24 h of Compound 1, Day 14” value stood at 107 ng·h/mL and the “Cmax of Compound 1, Day 14” value turned out to be 29.5 ng/mL. In data set [4] (setting [6]), the “Individual animal's plasma concentration of Compound 1, 0 h post treatment” value is “BLOQ”; the “Individual animal's plasma concentration of Compound 1, 0.5 h post treatment” value was 4.02 ng/mL and 5.2 ng/mL and 3.67 ng/mL; the “Individual animal's plasma concentration of Compound 1, 2 h post treatment” value was 36.7 ng/mL and 30.9 ng/mL and 20.8 ng/mL; the “Individual animal's plasma concentration of Compound 1, 8 h post treatment” value is 3.18 ng/mL and 6.95 ng/mL and 3.59 ng/mL. Further, the “Individual animal's plasma concentration of Compound 1, 24 h post treatment” value in data set [4] (setting [6]) was “BLOQ”. In data set [4] (setting [7]), the “AUC0-24 h of Compound 1, Day 14” value was found to be 179 ng·h/mL and the “Cmax of Compound 1, Day 14” value came out at 42.4 ng/mL. Also, in data set [4] (setting [8]), the “Individual animal's plasma concentration of Compound 1, 0 h post treatment” value is listed as “BLOQ”; the “Individual animal's plasma concentration of Compound 1, 0.5 h post treatment” value is 14.4 ng/mL and 6.94 ng/mL and 9.04 ng/mL; the “Individual animal's plasma concentration of Compound 1, 2 h post treatment” value is 54.9 ng/mL and 35.8 ng/mL and 36.4 ng/mL; the “Individual animal's plasma concentration of Compound 1, 8 h post treatment” value was 5.15 ng/mL and 7.02 ng/mL and 5.05 ng/mL. Moreover, the “Individual animal's plasma concentration of Compound 1, 24 h post treatment” value in data set [4] (setting [8]) is “BLOQ (2×) and 0.692 ng/mL”. Moreover, in data set [4] (setting [9]), the “AUC0-24 h of Compound 1, Day 14” value is 200 ng·h/mL and the “Cmax of Compound 1, Day 14” value worked out at 55.8 ng/mL. Moreover, the “exposure (AUC0-24h and Cmax) at steady state, single treatment group versus combo treatment” value in data set [4] (Compound 1 1.5 mg/kg p.o. QD, with or without dexamethasone) is “consistent with that in combo treatment”. The “Individual animal's plasma concentration of Compound 1, 24 h post treatment” value in data set [4] (Compound 1 1.5 mg/kg p.o. QD) was “BLOQ”. For the same molecule, in data set [4] (setting [10]), the “Individual animal's plasma concentration of Compound 1, 0 h post treatment” value was 1.09 ng/mL and BLOQ (2×); the “Individual animal's plasma concentration of Compound 1, 0.5 h post treatment” value was 8 ng/mL and 5.72 ng/mL and 9.29 ng/mL; the “Individual animal's plasma concentration of Compound 1, 2 h post treatment” value was 62.8 ng/mL and 40.7 ng/mL and 63.9 ng/mL; the “Individual animal's plasma concentration of Compound 1, 8 h post treatment” value is 9.97 ng/mL and 9.73 ng/mL and 5.81 ng/mL.
Consider `C[C@@H]1C[C@H]2[C@@H]3CCC4=CC(=O)C=C[C@]4(C)[C@@]3(F)[C@@H](O)C[C@]2(C)[C@@]1(O)C(=O)CO` [Dexamethasone], for which, in data set [2] (setting [11]), the “TGI (%) Day 17” value is given as 9% and the “Tumor Volume (mm^3) (Mean ± SEM) Day 17” value is 1036.5 ± 88.8 mm^3. Besides, in data set [2] (Dexamethasone 1 mg/kg p.o. QD), the “TGI (%) Day 17” value worked out at 46% and the “Tumor Volume (mm^3) (Mean ± SEM) Day 17” value amounted to 696.0 ± 69.2 mm^3.
